In general, IC50 refers to the concentration at which inhibition is half-maximal. Broadly, the melting point is the temperature of the solid-liquid transition.

The target of one data set is T1, Recombinant human MAO-A (Homo sapiens, UniProt P21397).
T1 construct: purchased BD Biosciences (MA, USA)
T1 sequence (P21397 1-527): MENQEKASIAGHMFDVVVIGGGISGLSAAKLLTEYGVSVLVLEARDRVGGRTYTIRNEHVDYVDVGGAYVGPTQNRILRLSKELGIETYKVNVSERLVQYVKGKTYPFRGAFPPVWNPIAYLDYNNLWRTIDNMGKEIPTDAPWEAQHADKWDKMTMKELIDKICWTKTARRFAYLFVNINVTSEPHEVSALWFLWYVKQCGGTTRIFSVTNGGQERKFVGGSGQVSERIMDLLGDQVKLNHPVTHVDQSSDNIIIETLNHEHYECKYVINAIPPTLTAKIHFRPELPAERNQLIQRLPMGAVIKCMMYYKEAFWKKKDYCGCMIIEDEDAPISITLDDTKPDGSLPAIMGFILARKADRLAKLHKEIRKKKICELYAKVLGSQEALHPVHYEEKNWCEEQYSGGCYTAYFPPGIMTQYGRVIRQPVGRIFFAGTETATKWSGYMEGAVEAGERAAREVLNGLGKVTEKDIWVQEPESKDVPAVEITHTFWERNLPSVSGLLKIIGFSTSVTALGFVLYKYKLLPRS
Kind of data set: MAO-A activity, colorimetric method, tyramine substrate. Format: biochemical. The note with it: for Specificity of SSAO on MAO-A: ratio of IC50 for MAO-A to IC50 for SSAO; for IC50: recombinant human MAO-A. The method, then:
The specificities of the different SSAO inhibitors was tested by determining their abilities to inhibit MAO-A and MAO-B activities in vitro. Recombinant human MAO-A and human MAO-B enzymes were obtained from BD Biosciences (MA, USA). MAO activity was measured using the colorimetric method essentially as described (Holt, A. et al. (1997) Anal. Biochem. 244: 384). A pre-determined amount of inhibitor diluted in 0.2M potassium phosphate buffer, pH 7.6, was added to each well, if required. The amount of inhibitor varied in each assay but was generally at a final concentration of between 1 nM and 1 mM. Controls lacked inhibitor. The following agents were then added to a final reaction volume of 200 μL in 0.2M potassium phosphate buffer, pH 7.6: 0.04 mg/ml of MAO-A or 0.07 mg/ml MAO-B enzyme, 15 μL of 10 mM tyramine substrate (for MAO-A), or 15 μL 100 mM benzylamine substrate (for MAO-B), and 50 μL of freshly made chromogenic solution. The chromogenic solution contained 750 μM vanillic acid (Sigma#V-2250), 400 μM 4-aminoantipyrine (Sigma #A-4328) and 12 U/mL horseradish peroxidase (Sigma #P-8250) in order to cause a change of 0.5 OD A490 nm/h. This was within the linear response range for the assay. The plates were incubated for 60 min at 37° C. The increase in absorbance, reflecting MAO activity, was measured at 490 nm using microplate spectrophotometer (Power Wave 40, Bio-Tek Inst.). Inhibition was presented as percent inhibition compared to control after correcting for background absorbance and IC50 values calculated using GraphPad Prism software. Clorgyline and pargyline (inhibitors of MAO-A and -B, respectively) at 1 μM, were added to some wells as positive controls for MAO inhibition. […] The compounds described in the present invention are therefore expected to have therapeutic utility in the treatment of diseases and conditions in which the activity of SSAO/VAP-1 plays a role, that is, in SSAO/VAP-1 mediated diseases and conditions.

In the next data set the target is T2, Human SSAO (Homo sapiens, UniProt Q16853).
T2 construct: rat lung or human umbilical cord homogenates were prepared by chopping the freshly removed tissue; from tissue; host or cells: human umbilical cord homogenate (25,000 g supernatant)
T2 sequence (Q16853 1-763): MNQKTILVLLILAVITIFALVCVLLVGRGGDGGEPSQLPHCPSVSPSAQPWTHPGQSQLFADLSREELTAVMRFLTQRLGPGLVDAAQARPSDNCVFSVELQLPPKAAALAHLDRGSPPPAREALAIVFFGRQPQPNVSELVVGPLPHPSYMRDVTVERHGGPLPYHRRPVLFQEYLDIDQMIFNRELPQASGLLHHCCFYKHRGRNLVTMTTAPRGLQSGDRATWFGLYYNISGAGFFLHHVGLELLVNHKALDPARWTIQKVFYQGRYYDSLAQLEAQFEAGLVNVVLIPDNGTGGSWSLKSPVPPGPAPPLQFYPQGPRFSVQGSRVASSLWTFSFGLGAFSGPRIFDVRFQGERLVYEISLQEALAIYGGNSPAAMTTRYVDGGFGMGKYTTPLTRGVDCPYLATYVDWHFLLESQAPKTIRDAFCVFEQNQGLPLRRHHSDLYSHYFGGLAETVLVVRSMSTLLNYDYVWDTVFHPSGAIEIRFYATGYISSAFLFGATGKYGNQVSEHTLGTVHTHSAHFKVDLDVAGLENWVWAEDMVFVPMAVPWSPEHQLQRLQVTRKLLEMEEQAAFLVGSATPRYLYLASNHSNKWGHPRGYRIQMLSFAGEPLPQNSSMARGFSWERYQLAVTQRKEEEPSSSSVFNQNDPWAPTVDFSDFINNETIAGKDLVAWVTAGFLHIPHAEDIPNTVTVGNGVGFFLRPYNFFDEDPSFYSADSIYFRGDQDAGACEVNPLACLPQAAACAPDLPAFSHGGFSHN
Put plainly: In vitro inhibition of SSAO activity, human umbilical cord homogenate, 14C-benzylamine. Format: biochemical. The note with it: human umbilical cord homogenate; read-out: Human SSAO IC50.

Consider `COc1ccc(CC/C(=C\Cl)CN)cc1.Cl` [Compound I-44-Z, (E)-3-Chloro-2-(4-methoxyphenylethyl)allylamine hydrochloride], for which the melting point was 138 °C (dec.). Further, on Recombinant human MAO-A, the “Specificity of SSAO on MAO-A” value amounted to 146 and the IC50 was 105 µM. Also, at Human SSAO, the IC50 turned out to be 0.72 µM.
`CCOc1ccc(CC/C(=C\Cl)CN)cc1.Cl` [Compound I-45-Z, (E)-3-Chloro-2-(4-ethoxyphenylethyl)allylamine hydrochloride] gave a melting point of 104 to 106 °C. Moreover, at Recombinant human MAO-A, the “Specificity of SSAO on MAO-A” value is given as 143 and the IC50 is 20 µM. For the same compound, the IC50 on Human SSAO amounted to 0.14 µM.
`CCCCOc1ccc(CC/C(=C\Cl)CN)cc1.Cl` [Compound I-47-E, (E)-3-Chloro-2-(4-n-butoxyphenylethyl)allylamine hydrochloride] had a melting point of 132 to 133 °C. In addition, at Recombinant human MAO-A, the “Specificity of SSAO on MAO-A” value was 794 and the IC50 is 135 µM. At Human SSAO, the IC50 was determined as 0.17 µM.
For `COc1ccc(CC/C(=C/F)CN)cc1.Cl` [Compound I-102-Z, (Z)-3-Fluoro-2-[2-(4-methoxyphenyl)-ethyl]-allylamine hydrochloride], in that order: 94 to 95 °C, 21, 0.62 µM and 0.03 µM.
For `NC/C(=C\F)CCc1cc(F)cc(C(F)(F)F)c1.O=C(O)C(F)(F)F` [Compound I-109-Z, (Z)-3-Fluoro-2-(3-fluoro-5-trifluoromethylphenylethyl)allylamine trifluoroacetate], in that order: 56 to 57 °C, 78, 21 µM and 0.27 µM.
For `Cl.NC/C(F)=C\Cc1ccc(F)cc1` [II-5-E, (E)-2-Fluoro-4-(4-fluorophenyl)-2-butenylamine hydrochloride], in that order: 213 to 214 °C, more than 3333, more than 1000 µM and 0.3 µM.
In the case of `Cc1cccc(C/C=C(/F)CN)c1.Cl` [II-6-E, (E)-2-Fluoro-4-(3-methylphenyl)-2-butenylamine hydrochloride], the melting point lay in the range of 195 to 196 °C. Besides, the “Specificity of SSAO on MAO-A” value at Recombinant human MAO-A is 7692. In addition, the IC50 at Human SSAO is 0.13 µM.
On to `Cl.NC/C(F)=C\Cc1cccc(F)c1` [II-7-E, (E)-2-Fluoro-4-(3-fluorophenyl)-2-butenylamine hydrochloride], for which the melting point lay within 175 to 176 °C. In addition, at Recombinant human MAO-A, the “Specificity of SSAO on MAO-A” value came to 4545. Further, on Human SSAO, the IC50 was found to be 0.22 µM.
`COc1cccc(C/C=C(/F)CN)c1.Cl` [II-8-E, (E)-2-Fluoro-4-(3-methoxyphenyl)-2-butenylamine hydrochloride] returned a melting point of 175 to 176 °C. In addition, on Recombinant human MAO-A, the “Specificity of SSAO on MAO-A” value is on record as 50000 and the 50% inhibitory concentration (IC50) came out at 1100 µM. Besides, the IC50 on Human SSAO amounted to 0.022 µM.
For `Cl.NC/C(F)=C\Cc1ccccc1` [II-9-E, (E)-2-Fluoro-4-phenyl-2-butenylamine hydrochloride], in that order: 120 to 121 °C, 12120, 1200 µM and 0.099 µM.
Compound `Cl.NC/C(F)=C\Cc1cccc(OC(F)(F)F)c1` [II-10-E, (E)-2-Fluoro-4-(3-trifluoromethoxyphenyl)-2-butenylamine hydrochloride] registered a melting point of 174 to 175 °C. For the same compound, at Recombinant human MAO-A, the “Specificity of SSAO on MAO-A” value was determined as 48330 and the half-inhibitory concentration (IC50) is 870 µM. Further, the 50% inhibitory concentration (IC50) at Human SSAO was determined as 0.018 µM.
`CSc1cccc(C/C=C(/F)CN)c1.Cl` [II-13-E, (E)-2-Fluoro-4-(3-methylthiophenyl)-2-butenylamine hydrochloride] displayed a melting point of 192 to 193 °C. Further, the “Specificity of SSAO on MAO-A” value on Recombinant human MAO-A is 100000. In addition, the 50% inhibitory concentration (IC50) on Human SSAO is 0.01 µM.
For `CS(=O)(=O)c1cccc(C/C=C(/F)CN)c1.Cl` [II-14-E, (E)-2-Fluoro-4-(3-methanesulfonylphenyl)-2-butenylamine hydrochloride], in that order: 196 to 197 °C, 14290 and 0.07 µM.
Compound `Cl.NC/C(F)=C\Cc1cccc(SC(F)(F)F)c1` [II-15-E, (E)-2-Fluoro-4-(3-trifluoromethylthiophenyl)-2-butenylamine hydrochloride] had a melting point of 188 to 189 °C. On Recombinant human MAO-A, the “Specificity of SSAO on MAO-A” value was more than 34780 and the IC50 is more than 800 µM. Further, the IC50 at Human SSAO stood at 0.023 µM.

For the origin of these results see US20110269811A1, “INHIBITORS OF SEMICARBAZIDE-SENSITIVE AMINE OXIDASE (SSAO) AND VAP-1 MEDIATED ADHESION USEFUL FOR TREATMENT AND PREVENTION OF DISEASES” (priority 2006, published 2011).
